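Cultured in 96-well plates, cells were exposed to test compound for 48 hours across five concentrations. GI50 is the concentration that inhibits growth by half.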 Activity calls are given as the source filed them. Rule as the data show it: active = GI50 up to about 1.1 µM and inactive = higher.
Tests used:
Test in all cases: NCI-60 cell line screen, 48 h
SR = test system: SR
SF-539 = test system: SF-539
COLO 205 = test system: COLO 205
K562 = test system: K562
UACC-62 = test system: UACC-62
NCI-H460 = test system: NCI-H460
MCF7 = test system: MCF7
MDA-MB-435 = test system: MDA-MB-435
SF-268 = test system: SF-268
NCI-H522 = test system: NCI-H522
SW-620 = test system: SW-620
A498 = test system: A498
HT-29 = test system: HT-29
RXF 393 = test system: RXF 393
MOLT-4 = test system: MOLT-4
HCT-15 = test system: HCT-15
HOP-62 = test system: HOP-62
HCT-116 = test system: HCT-116
SNB-19 = test system: SNB-19
SF-295 = test system: SF-295

SMILES	GI50 (SR)	GI50 (SF-539)	GI50 (COLO 205)	GI50 (K562)	GI50 (UACC-62)	GI50 (NCI-H460)	GI50 (MCF7)	GI50 (MDA-MB-435)	GI50 (SF-268)	GI50 (NCI-H522)	GI50 (SW-620)	GI50 (A498)	GI50 (HT-29)	GI50 (RXF 393)	GI50 (MOLT-4)	GI50 (HCT-15) [µM]	GI50 (HOP-62)	GI50 (HCT-116)	GI50 (SNB-19)	GI50 (SF-295)
C=C1C[C@@H](O)[C@@H](Br)C(C)(C)[C@]12CCC(C)(Cl)C(Br)C2 (stereo not given in full)	40.8 µM (inactive)	16.8 µM (inactive)	4.86 µM (inactive)	53.5 µM (inactive)	40.5 µM (inactive)	27.3 µM (inactive)	25.1 µM (inactive)	23.9 µM (inactive)	32 µM (inactive)	17.5 µM (inactive)	39.9 µM (inactive)	> 46.9 µM (inactive)	29 µM (inactive)	28.6 µM (inactive)	36.4 µM (inactive)	35.1	19.1 µM (inactive)	32.3 µM (inactive)	> 31.6 µM (inactive)	30.6 µM (inactive)
O=C(/C=C/c1ccccc1)c1cc(CN2CCOCC2)c(O)c(CN2CCOCC2)c1	5.51 µM (inactive)	15.1 µM (inactive)	11.3 µM (inactive)	5.47 µM (inactive)	17 µM (inactive)	6.71 µM (inactive)	14.7 µM (inactive)	14.5 µM (inactive)	19.1 µM (inactive)	> 100 µM (inactive)	12.3 µM (inactive)	12.9 µM (inactive)	17.4 µM (inactive)	14.1 µM (inactive)	16.7 µM (inactive)	7.5	16.8 µM (inactive)	12.6 µM (inactive)	94 µM (inactive)	19.1 µM (inactive)
O=C1NCN(c2ccccc2)C12CCN(CC1COc3ccccc3O1)CC2 (stereo not given) [SPIROXATRINE]	> 100 µM (inactive)	62.5 µM (inactive)	> 100 µM (inactive)	> 100 µM (inactive)	> 100 µM (inactive)	> 100 µM (inactive)	> 100 µM (inactive)	> 100 µM (inactive)	65.2 µM (inactive)	91.8 µM (inactive)	> 100 µM (inactive)	71.6 µM (inactive)	> 100 µM (inactive)	29.9 µM (inactive)	> 100 µM (inactive)	> 100	22.5 µM (inactive)	> 100 µM (inactive)	30.3 µM (inactive)	33.8 µM (inactive)

From ChEMBL document CHEMBL1201862, “PubChem BioAssay data set” (2004)
